The experiment concerns nodal section explants from 7-day-old seedlings of corn line 106. Put plainly: Effect of seed germination medium on callus induction from nodal section explants (36-media screen). The experiment is classed as cell-based. As for the experimental part: This example described experiments to determine the best combination of auxins and cytokinins in the germination tissue culture media. To improve the efficiency of callus induction from 106 seedlings, 36 different germination media were evaluated. Those media were MS-based with different combinations of picloram (0, 0.1, 1, 2.2, 5 or 10 mg/L) and BAP (0, 0.1, 1, 3, 5 or 10 mg/L) concentrations.

`c1ccc(CNc2ncnc3nc[nH]c23)cc1` [BAP, 6-benzylaminopurine]: the “callus induction (% embryogenic calli per node)” value stood at 4.76% (germination medium picloram 0.00 mg/L, BAP 0.10 mg/L); 0.00% (germination medium picloram 0.00 mg/L, BAP 1.00 mg/L); 14.29% (germination medium picloram 0.00 mg/L, BAP 3.00 mg/L); 0.00% (germination medium picloram 0.00 mg/L, BAP 5.00 mg/L); 0.00% (germination medium picloram 0.00 mg/L, BAP 10.00 mg/L).
Take `Nc1c(Cl)c(Cl)nc(C(=O)O)c1Cl` [Picloram, 4-amino-3,5,6-trichloropicolinic acid]: the “callus induction (% embryogenic calli per node)” value runs as follows: (germination medium picloram 0.10 mg/L, BAP 0.00 mg/L) 0.00%; (germination medium picloram 1.00 mg/L, BAP 0.00 mg/L) 9.52%; (germination medium picloram 2.20 mg/L, BAP 0.00 mg/L) 9.52%; (germination medium picloram 5.00 mg/L, BAP 0.00 mg/L) 19.05%; (germination medium picloram 10.00 mg/L, BAP 0.00 mg/L) 4.76%.

(Values after patent publication US20040210958A1, “A Novel Culture Method for Corn Transformation” (MONSANTO TECHNOLOGY LLC, priority 2003, published 2004).)
